The compounds below were run on influenza A virus (A/WSN/33 NanoLuc reporter virus) in A549 cells (assay: microbe, parasite or virus in culture). Details: A549, 24 h, read-out: IC50 values of viral replication inhibition in a cell-based Luciferase Reporter Assay (LRA).
Format: cell-based
In the case of `CC(C)N1C[C@H](C(c2ccccc2)c2ccccc2)n2c(-c3nnn[nH]3)nc(=O)c(O)c2C1=O` [Ia-53, (4S)-4-Benzhydryl-9-hydroxy-2-isopropyl-6-(1H-tetrazol-5-yl)-3,4-dihydropyrazino[1,2-c]pyrimidine-1,8-dione], the IC50 is reported as 20200 nM.
`COc1nc(=O)c(O)c2n1[C@@H](C1c3cccc(F)c3CCc3c(F)cccc31)[C@H](C)N(C)C2=O` [Example 1a-21, (3S,4S)-4-(1,9-Difluoro-10,11-dihydro-5H-dibenzo[a,d][7]annulen-5-yl)-9-hydroxy-6-methoxy-2,3-dimethyl-3,4-dihydro-2H-pyrazino[1,2-c]pyrimidine-1,8-dione] gave an IC50 of 15 nM.
In the case of `CSc1nc(=O)c(O)c2n1[C@@H](C(c1ccccc1)c1ccccc1)CN(C(C)C)C2=O` [Ia-23, (4S)-4-Benzhydryl-9-hydroxy-2-isopropyl-6-methylsulfanyl-3,4-dihydropyrazino[1,2-c]pyrimidine-1,8-dione], the IC50 is reported as 36 nM.
In the case of `CC(C)N1C[C@H](C2c3ccccc3CCc3ccccc32)n2c(NS(C)(=O)=O)nc(=O)c(O)c2C1=O` [Ia-22, N-[(4S)-4-(6,11-dihydro-5H-dibenzo[1,2-a:2′,1′-d][7]annulen-11-yl)-9-hydroxy-2-isopropyl-1,8-dioxo-3,4-dihydropyrazino[1,2-c]pyrimidin-6-yl]methanesulfonamide], the IC50 is reported as 144 nM.
Work on `CC(C)N1C[C@H](C(c2ccccc2)c2ccccc2)n2c(OCc3ccccc3)nc(=O)c(O)c2C1=O` [Example 1a-13, (4S)-4-Benzhydryl-6-benzyloxy-9-hydroxy-2-isopropyl-3,4-dihydropyrazino[1,2-c]pyrimidine-1,8-dione] yielded an IC50 of 8320 nM.
Work on `CC(C)N1C[C@H](C(c2ccccc2)c2ccccc2)n2c(O)nc(=O)c(O)c2C1=O` [Example 1a-6, (4S)-4-Benzhydryl-6,9-dihydroxy-2-isopropyl-3,4-dihydropyrazino[1,2-c]pyrimidine-1,8-dione] yielded an IC50 of 218 nM.
`COc1nc(=O)c(O)c2n1[C@@H](C(c1ccccc1)c1ccccc1)CN(C(C)C)C2=O` [Example 1a-4, (4S)-4-Benzhydryl-9-hydroxy-2-isopropyl-6-methoxy-3,4-dihydropyrazino[1,2-c]pyrimidine-1,8-dione] was tested, and the IC50 was 14 nM.
Compound `CC(=O)NCc1nc(=O)c(O)c2n1[C@@H](C(c1ccccc1)c1ccccc1)CN(C(C)C)C2=O` [Ia-55, N-[[(4S)-4-Benzhydryl-9-hydroxy-2-isopropyl-1,8-dioxo-3,4-dihydropyrazino[1,2-c]pyrimidin-6-yl]methyl]acetamide] has an IC50 of 473 nM.
`CSc1nc(=O)c(O)c2n1[C@@H](C1c3ccccc3CCc3ccccc31)CN(C(C)C)C2=O` [Ia-30, (4S)-4-(6,11-Dihydro-5H-dibenzo[2,1-b:1′,2′-e][7]annulen-11-yl)-9-hydroxy-2-isopropyl-6-methylsulfanyl-3,4-dihydropyrazino[1,2-c]pyrimidine-1,8-dione] was tested, and the IC50 was 17 nM.
Compound `CN1C[C@H](C2c3ccccc3CCc3ccccc32)n2c(O)nc(=O)c(O)c2C1=O` [Example 1a-11, (4S)-4-(10,11-Dihydro-5H-dibenzo[a,d][7]annulen-5-yl)-6,9-dihydroxy-2-methyl-3,4-dihydro-2H-pyrazino[1,2-c]pyrimidine-1,8-dione] has an IC50 of 128 nM.
`C=Cc1nc(=O)c(O)c2n1C(C1c3ccccc3CCc3ccccc31)CN(C(C)C)C2=O` (stereo not drawn) [Ia-47, 4-(6,11-Dihydro-5H-dibenzo[2,1-b:1′,2′-e][7]annulen-11-yl)-9-hydroxy-2-isopropyl-6-vinyl-3,4-dihydropyrazino[1,2-c]pyrimidine-1,8-dione] gave an IC50 of 40 nM.
In the case of `Cc1nc(=O)c(O)c2n1[C@@H](C(c1ccccc1)c1ccccc1)CN(C(C)C)C2=O` [Ia-40, (4S)-4-Benzhydryl-9-hydroxy-2-isopropyl-6-methyl-3,4-dihydropyrazino[1,2-c]pyrimidine-1,8-dione], the IC50 is reported as 119 nM.

From patent publication US9988390B2, “Pyrimidone derivatives and their use in the treatment, amelioration or prevention of a viral disease” (F. Hoffmann-La Roche AG, priority 2015, dated 2018)
